Laboratory results from article PMC2852483 (Molecular cancer therapeutics, 2010).
Numbered stars: 1 amine (or outer) side, 2 acyl side, 3 side chain; on linkers, the order of the positions; unused ones are H or OH. Square brackets hold non-standard residues; d marks the D form. Side chains are listed from the residue outwards. Peptide text beside a SMILES is read from it. * marks the point of attachment. NOTA(2S-Bn(4-NHCS)) = O=C(O)CN1CCN(CC(=O)O)C[C@H](Cc2ccc(NC(=S)*)cc2)N(CC(=O)O)CC1; NH(2-(imidazol-4-yl)ethyl) = c1ncc(CCN*)[nH]1; Suc = O=C(CCC(=O)[*:2])[*:1]

What was measured:
[1] = set-up: species or system nude BALB/c mice; conditions: mouse, in vivo, 5 MBq
[2] = test system: s.c. CEA-expressing LS174T tumor; set-up: species or system nude BALB/c mice; conditions: mouse

Structure (SMILES) | tissue uptake [1] [%ID/g] | stability in vivo [2] | tumor uptake in non-pretargeted mice ([2]; in vivo) [% ID/g]
C[C@@H](NC(=S)Nc1ccc(C[C@H]2CN(CC(=O)O)CCN(CC(=O)O)CCN2CC(=O)O)cc1)C(=O)N[C@H](CCCCNC(=O)CNC(=O)CCC(=O)NCCc1c[nH]cn1)C(=O)N[C@H](Cc1ccc(O)cc1)C(=O)N[C@H](CCCCNC(=O)CNC(=O)CCC(=O)NCCc1c[nH]cn1)C(N)=O [IMP-449] ({NOTA(2S-Bn(4-NHCS))}-[dA][dK]([Gly-Suc-NH(2-(imidazol-4-yl)ethyl)])[dY][dK]([Gly-Suc-NH(2-(imidazol-4-yl)ethyl)])-NH2; N-terminus and C-terminus assumed) | 0.54 ± 0.2 |  | 
C[C@@H](NC(=S)Nc1ccc(C[C@H]2CN(CC(=O)O)CCN(CC(=O)O)CCN2CC(=O)O)cc1)C(=O)N[C@H](CCCCNC(=O)CNC(=O)CCC(=O)NCCc1c[nH]cn1)C(=O)N[C@H](Cc1ccc(O)cc1)C(=O)N[C@H](CCCCNC(=O)CNC(=O)CCC(=O)NCCc1c[nH]cn1)C(N)=O [^18F-IMP-449] ({NOTA(2S-Bn(4-NHCS))}-[dA][dK]([Gly-Suc-NH(2-(imidazol-4-yl)ethyl)])[dY][dK]([Gly-Suc-NH(2-(imidazol-4-yl)ethyl)])-NH2; N-terminus and C-terminus assumed) |  | stable in vivo | 0.45 ± 0.38
